# Measured values published in PMC11224282, “Insight into binding of endogenous neurosteroid ligands to the sigma-1 receptor” (Nature Communications, 2024).
# Changes are numbered by the printed parent chain. Where a name gives a salt, the structure may show the parent alone. Read-outs that look alike come from different tables or passages of the source.
# T1: xlσ1R wild-type (Xenopus laevis, UniProt Q6DCU6)
# T1 construct: hemagglutinin signal peptide (N); made in house; host or cells: Pichia pastoris GS115
# T1 sequence (Q6DCU6 1-221): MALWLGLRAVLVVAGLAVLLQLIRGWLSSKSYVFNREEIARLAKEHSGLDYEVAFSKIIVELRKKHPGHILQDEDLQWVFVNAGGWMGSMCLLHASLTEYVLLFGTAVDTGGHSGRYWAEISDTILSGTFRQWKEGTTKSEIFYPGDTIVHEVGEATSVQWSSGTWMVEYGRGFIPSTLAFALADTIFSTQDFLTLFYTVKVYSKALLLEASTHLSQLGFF
# T2: xlσ1R E169A (Xenopus laevis, UniProt Q6DCU6, E169A)
# T2 construct: hemagglutinin signal peptide (N); made in house; host or cells: Pichia pastoris GS115
# T2 sequence (Q6DCU6 1-221 E169A): T1 sequence (Q6DCU6 1-221) with E169A
# B1: sigma-1 receptor from Xenopus laevis (xlσ1R), wild type, purification tag removed (receptor)
# chain: T1 sequence (Q6DCU6 1-221)
# notes: sigma-1 receptor, Xenopus laevis, NCBI NP_001087013.1, wild type; the simulation methods speak of residues 1-33 (transmembrane helix) and 34-219 of the crystal model; Cloned in a modified pPICZ plasmid after a hemagglutinin signal peptide, a decahistidine tag and a TEV protease site; the tag was removed by TEV protease before crystallisation; also called xlσ1R_(unknown-lig); xlσ1R_(prog-co); not …
# Key:
# [1] = target: T1, xlσ1R wild-type; assay: Microscale thermophoresis (MST) binding to xlσ1R wild-type
# [2] = target: T2, xlσ1R E169A; assay: Microscale thermophoresis (MST) binding to xlσ1R E169A mutant
# [3] = target: σ1R; conditions: cited from earlier work; for Ki: inhibition of radioligand (e.g. [3H]SKF-10,047) binding to σ1R
# [4] = target: the molecule itself; assay: crystal structure; sitting-drop vapour diffusion at 20 °C; 0.32 M LiCl, 0.1 M sodium citrate pH 5.5, 12% PEG 4000, 10% glycerol, 15 mM sodium cholate; protein in OG/CHS; no ligand added, or with 1 mM progesterone or 1 mM DHEAS; space groups I432 (trimer by crystal symmetry) and C2 (two trimers in the asymmetric unit)
molecule,measurement,setting,value
"CCCCCCCCO[C@@H]1O[C@H](CO)[C@@H](O)[C@H](O)[C@H]1O [OG, octyl-β-D-glucopyranoside]",Kd,"[1]; MST binding assay, xlσ1R, printed only in peer review file, OG data removed from final manuscript, read-out: Kd",8300 ± 2700 µM
"CC12CCC3C(CC=C4CC(OS(=O)(=O)O)CCC43C)C1CCC2=O (stereo not drawn) [DHEAS, dehydroepiandrosterone sulfate]",Kd,"[1]; read-out: Kd (mean), MST, wild-type xlσ1R, N = 3, mean (± SD)",18 ± 2.5 µM
same,Kd,"[1]; read-out: Kd Mean, Source Data sheet Supplementary Table 3, wild-type, mean of 3",18 µM
same,Kd,"[1]; read-out: Kd Repeat 1, Source Data sheet Supplementary Table 3, wild-type, repeat 1",17.2 µM
same,Kd,"[1]; read-out: Kd Repeat 2, Source Data sheet Supplementary Table 3, wild-type, repeat 2",15.9 µM
same,Kd,"[1]; read-out: Kd Repeat 3, Source Data sheet Supplementary Table 3, wild-type, repeat 3",20.8 µM
same,Kd,"[2]; read-out: Kd (mean), MST, xlσ1R E169A, N = 3, mean (± SD)",456 ± 17 µM
same,Kd,"[2]; read-out: Kd Mean, Source Data sheet Supplementary Table 3, E169A, mean of 3",456 µM
same,Kd,"[2]; read-out: Kd Repeat 1, Source Data sheet Supplementary Table 3, E169A, repeat 1",471 µM
same,Kd,"[2]; read-out: Kd Repeat 2, Source Data sheet Supplementary Table 3, E169A, repeat 2",438 µM
same,Kd,"[2]; read-out: Kd Repeat 3, Source Data sheet Supplementary Table 3, E169A, repeat 3",460 µM
same,Ki,[3],micromolar range or more
"C[C@]12CC[C@H](O)CC1=CC[C@@H]1[C@@H]2CC[C@]2(C)C(=O)CC[C@@H]12 [DHEA, dehydroepiandrosterone]",Ki,[3],micromolar range or more
pregnenolone sulfate,Ki,[3],micromolar range or more
CC(=O)[C@H]1CC[C@H]2[C@@H]3CCC4=CC(=O)CC[C@]4(C)[C@H]3CC[C@]12C [progesterone],Kd,"[1]; MST, wild-type xlσ1R, N = 3, mean (± SD), read-out: Kd (mean)",0.94 ± 0.22 µM
same,Kd,"[1]; Source Data sheet Supplementary Table 3, wild-type, repeat 1, read-out: Kd Repeat 1",0.71 µM
same,Kd,"[1]; Source Data sheet Supplementary Table 3, wild-type, repeat 2, read-out: Kd Repeat 2",0.96 µM
same,Kd,"[1]; Source Data sheet Supplementary Table 3, wild-type, repeat 3, read-out: Kd Repeat 3",1.14 µM
same,affinity for σ1R,[3],in μM range
same,Ki,[3],submicromolar range
B1,stoichiometry N,[4],3
